Measured values as given in patent US20170119020A1, “METHOD OF FEEDING AN ANIMAL” (CARGILL, INCORPORATED, priority 2014, published 2017).

Columns and labels:
[1] = system: livers of Ross 308 chicks; assay: Chick liver SOD and GSSG analysis, OXISELECT kits (Example 5); type: in vivo, chicken; conditions: breeder diet
Procedure: Group egg weights were recorded at E0. At E7 and E18, all eggs were candled and empty eggs or eggs containing dead embryos were removed (early dead E0-E7, mid dead E8-E18). At E18 eggs were transferred to the hatching baskets after candling. At hatch (E21) the number of dead chickens, late dead embryos (E19-E21) and pipped eggs were recorded. The number of hatched chickens was recorded per replicate, as well as average chick weight. Hatchability was calculated as percentage of total eggs set. Sex was determined by feather sexing, female chickens were euthanized by CO2 and disposed according to local regulations. Per experimental unit, five male chickens were selected for the grow-out period and allocated to broiler grower pens. Only chickens with an average body weight, completely dry, showing active movement and with a good navel score were selected. After this selection one male chicken per experimental unit was selected for dissection. Sample chickens were individually weighed and killed by cervical dislocation to measure remaining yolk-sac weights, yolk-free body mass (“YFBM”), liver weight, chick length, and shank length of both shanks. The livers were immediately placed on dry ice and after dissection stored at −20° C. for further analysis (“SOD and GSSG”). Relative asymmetry was calculated according to the following formula: […]
Furthermore, no treatment effects were found on several chick quality parameters (YFBM, chick length, and relative asymmetry). OXISELECT Superoxide Dismutase Activity Assay (“SOD”) and OXISELECT Total Glutathione (GSSG/GSH) Assay (“GSSG”) kits, available commercially from Cell Biolabs, Inc., San Diego, Calif., USA, were used to analyze chick livers.

sows (PIC) = assay: Sow performance (Example 10); type: in vivo, pig; conditions: for Culled sows, n: reproductive failure: 13 sows; for Wean-to-remate interval / Weaning-to-estrus interval: Subsequent performance; for Farrowing rate (%), subsequent performance: next cycle
Procedure: The trial was conducted at a farm in Poland. In general the housing and management conditions on the chosen workplace were considered representative for the geographical region. The breeding, gestation, and farrowing facilities of the farm were fully enclosed buildings with rooms that were ventilated and heated to maintain a minimum comfort zone temperature for the sows. Testing was performed on sows (primiparous and multiparous) of the same type of crossing (PIC). The trial comprised 52 sows in a system of continuous farrowing. Each group was consist of 13 animals. The trial ran from day 1 of pregnancy to remating in the next cycle. There were two dietary compositions: LP 0-90 d, LK-90 d of gestation-weaning. Feed fed throughout the study was manufactured in the feed mill of the farm. The feed produced was complete feeds according to the standard feeding management procedures on the participating farm. Feed consistency was mash. […] Each group was fed with complete diets for pregnant sows (0-90 d) and for lactation sows (90 d of gestation-weaning) with different inclusion of vitamin E and tested product (see TABLE 43A) and lactation diets (see TABLE 43B) The performance following criteria were monitored during the trial: (i) Sows response criteria (actual parity, farrowing rate, culled sows—number and reasons, wean-to-mating interval, farrowing rate in the next cycle); (ii) litter response criteria (number of piglets, total, alive, stillborn, mummies; weight of piglets and litters; survival). The following biochemical (blood) criteria were monitored during the trial for the sows (mating, farrowing and weaning), piglets 21st day: (i) glutathione peroxidase (GPx) activity; (ii) superoxide dismutase (SOD) activity; (iii) total antioxidant status (TAS); (iv) vitamin E content; (v) vitamin A content.

sows and piglets = assay: Superoxide dismutase (SOD) activity in serum of sows and piglets (Example 10); type: in vivo, pig; conditions: for Activity of superoxide dismutase (SOD) in serum of piglets: piglets at 21 days
Excerpt: The performance following criteria were monitored during the trial: (i) Sows response criteria (actual parity, farrowing rate, culled sows—number and reasons, wean-to-mating interval, farrowing rate in the next cycle); (ii) litter response criteria (number of piglets, total, alive, stillborn, mummies; weight of piglets and litters; survival). The following biochemical (blood) criteria were monitored during the trial for the sows (mating, farrowing and weaning), piglets 21st day: (i) glutathione peroxidase (GPx) activity; (ii) superoxide dismutase (SOD) activity; (iii) total antioxidant status (TAS); (iv) vitamin E content; (v) vitamin A content.
To determine the oxidative status, the blood samples were collected from sows and piglets into tubes with lithium anticoagulant—received whole blood for analysis. At the same time blood samples were taken for blood clot. They were centrifuged (1500 rpm, 15 Temp. 4° C.) and obtained serum was pipetted into separate tubes.
In studies of oxidative status of sows and piglets were used suitable to each of the indicators, the reagent kits from Sigma-Aldrich. Determination was made in accordance with the descriptions of the rules and procedures specified by the manufacturer.
The content of the TAS (total antioxidant status) were determined using the Antioxidant assay kit (Cat. No CS0790), the activity of SOD (superoxide dismutase) was determined using SOD determination kit 19160, the activity of GPx (glutathione Peroxide assai Cellular Activity Kit) Cat. No CGP1. The content of vitamins A and E by McMurray and Blanchflower 1979 (Journal of Chromatography 178, 525-531.). TAS
Serum samples (20 ul) in duplicate were incubated at 37° C. for 20 minutes with the working solution WST (tetrazolium sodium salt, 2-(4-lodophenyl)-3 (4-nitrophenyl0-5-(2,4-disulfophenyl) 2H-tetrazolium, monosodium salt) (200 pl) and the enzyme working solution (20 pl). Simultaneously sample blanks were performed (two reagents, and blank for each sample) and a calibration curve based on serial dilutions of SOD in a range of 200 to 0,001 U/ml. Absorbance of the blank, standards and test samples read on a spectrophotometer at a wavelength of 450 nm. WST produces a water-soluble formazan dye upon reduction with a superoxide anion. The rate of the reduction with O2 are linearly related to the xanthine oxidase (XO) activity. The SOD activity is measured as the degree of blocking the formation of the formazan dye.

[2] = Group 2: vitamin E 50/75 mg/kg diet
[3] = Group 3: vitamin E 100/150 mg/kg diet

Cc1c(C)c2c(c(C)c1O)CCC(C)(CCCC(C)CCCC(C)CCCC(C)C)O2 (racemic) [Vitamin E, DL-α-tocopherol]
GSSG ([1]; vitamin E equivalence 80 ppm): 4.27 µM
SOD units ([1]; vitamin E equivalence 80 ppm): 0.776 units
GSSG ([1]; vitamin E equivalence 160 ppm): 4.48 µM
SOD units ([1]; vitamin E equivalence 160 ppm): 0.777 units
Farrowing rate (%) (sows (PIC); [2]): 84.62%
Culled sows, n: reproductive failure (sows (PIC); [2]): 2
Farrowing rate (%) (sows (PIC); [3]): 84.62%
Culled sows, n: reproductive failure (sows (PIC); [3]): 2
Wean-to-remate interval (sows (PIC); [2]): 9.89 days
Weaning-to-estrus interval (sows (PIC); [2]): 5.09 days
Wean-to-remate interval (sows (PIC); [3]): 7.70 days
Weaning-to-estrus interval (sows (PIC); [3]): 5.64 days
Farrowing rate (%), subsequent performance (sows (PIC); [2]): 80.00%
Farrowing rate (%), subsequent performance (sows (PIC); [3]): 90.91%
Activity of superoxide dismutase (SOD) in serum of sows (sows and piglets; Breeding, Group 2: vitamin E 50/75 mg/kg diet): 71.43 U/ml
Activity of superoxide dismutase (SOD) in serum of sows (sows and piglets; Breeding, Group 3: vitamin E 100/150 mg/kg diet): 73.28 U/ml
Activity of superoxide dismutase (SOD) in serum of sows (sows and piglets; Farrowing, Group 2: vitamin E 50/75 mg/kg diet): 77.14^B U/ml
Activity of superoxide dismutase (SOD) in serum of sows (sows and piglets; Farrowing, Group 3: vitamin E 100/150 mg/kg diet): 79.60^AB U/ml
Activity of superoxide dismutase (SOD) in serum of sows (sows and piglets; Weaning, Group 2: vitamin E 50/75 mg/kg diet): 79.50^C U/ml
Activity of superoxide dismutase (SOD) in serum of sows (sows and piglets; Weaning, Group 3: vitamin E 100/150 mg/kg diet): 90.93^B U/ml
Activity of superoxide dismutase (SOD) in serum of piglets (sows and piglets; Group 2: vitamin E 50/75 mg/kg sow diet): 100.61^B U/ml
Activity of superoxide dismutase (SOD) in serum of piglets (sows and piglets; Group 3: vitamin E 100/150 mg/kg sow diet): 129.54^Ab U/ml
